Assay results published in US11161850B2, “Fused pyrazine derivatives as A2A / A2B inhibitors” (Incyte Corporation, priority 2018, dated 2021).
Where two headings read alike, the source gives them in different places.

Experiments:
Adenosine A2A = Adenosine A2A (Homo sapiens (Human), UniProt P29274); assay: A2A Tag-Lite HTRF assay; format: binding
Source text: Example C. A2A Tag-Lite® HTRF Assay

[1] = molecular target: human adenosine A2B receptor (Homo sapiens (Human), UniProt P29275); assay: Adenosine A2B Receptor Cyclic AMP GS Assay; format: cell-based; settings: A2B_cAMP_EC50 (nM), HEK-293 cells expressing human A2B, agonist NECA 12 nM
Procedure: Example B. Adenosine A2B Receptor Cyclic AMP GS Assay
Stably transfected HEK-293 cells expressing the human adenosine A2B receptor (Perkin Elmer) were maintained in MEM culture medium with 10% FBS and 100 μg/mL Geneticin (Life Technologies). 18 to 24 hours prior to assay, geneticin was removed from culture. The cisbio cAMP-GS Dynamic kit utilizing the FRET (Fluorescence Resonance Energy Transfer) technology was used to measure cAMP accumulation in the cells. Compounds of the present disclosure at an appropriate concentration were mixed with 10000 cells/well in white 96 well half area plates (Perkin Elmer) for 30 min at room temperature gently shaking. Agonist, NECA (R&D Technologies) at 12 nM was added to each well for 60 min at room temperature gently shaking. Detection reagents, d2-labeled cAMP (acceptor) and anti-cAMP cryptate (donor) were added to each well for 60 min at rt gently shaking. Plates were read on Pherastar (BMG Labtech), fluorescence ratio 665/620 was calculated and EC50 determination was performed by fitting the curve of percent of control versus the log of the compound concentration using GraphPad Prism.

[2] = Tag-Lite Adenosine A2A labeled cells, fluorescent ligand 12.5 nM, read-out: A2A_Ki

Sequence of human adenosine A2B receptor (P29275 whole entry): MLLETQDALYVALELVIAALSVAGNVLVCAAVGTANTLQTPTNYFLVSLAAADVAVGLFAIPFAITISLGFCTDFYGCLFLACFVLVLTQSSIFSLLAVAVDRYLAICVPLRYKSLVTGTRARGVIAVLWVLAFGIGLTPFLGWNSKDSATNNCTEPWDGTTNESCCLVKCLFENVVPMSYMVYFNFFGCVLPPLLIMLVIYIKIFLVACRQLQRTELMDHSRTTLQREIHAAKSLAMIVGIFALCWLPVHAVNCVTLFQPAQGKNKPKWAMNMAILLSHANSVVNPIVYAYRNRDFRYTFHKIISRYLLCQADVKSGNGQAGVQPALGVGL
Sequence of Adenosine A2A (P29274 whole entry): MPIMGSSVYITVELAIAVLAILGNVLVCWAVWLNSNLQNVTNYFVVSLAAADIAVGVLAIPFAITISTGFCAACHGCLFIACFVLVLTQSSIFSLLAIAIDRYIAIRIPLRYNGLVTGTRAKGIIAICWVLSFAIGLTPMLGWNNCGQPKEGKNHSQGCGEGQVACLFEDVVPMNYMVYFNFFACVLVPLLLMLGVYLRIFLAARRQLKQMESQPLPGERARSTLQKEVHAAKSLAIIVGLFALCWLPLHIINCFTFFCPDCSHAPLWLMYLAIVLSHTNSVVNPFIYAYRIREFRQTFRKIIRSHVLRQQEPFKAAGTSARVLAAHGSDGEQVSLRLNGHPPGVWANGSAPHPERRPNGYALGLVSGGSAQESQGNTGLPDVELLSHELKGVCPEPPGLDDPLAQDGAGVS

With `N#Cc1cccc(-c2nc(N)c3cc(Cc4ccccn4)nn3c2-c2ccncn2)c1` [Example 17, 3-(4-Amino-2-(pyridin-2-ylmethyl)-7-(pyrimidin-4-yl)pyrazolo[1,5-a]pyrazin-6-yl)benzonitrile] the Ki (Adenosine A2A; [2]) was less than 10 nM and the EC50 [1] was less than 10 nM.

With `CCn1nccc1-c1c(-c2cccc(C#N)c2)nc(N)c2cc(Cc3ccccn3)nn12` [Example 18, 3-(4-Amino-7-(1-ethyl-1H-pyrazol-5-yl)-2-(pyridin-2-ylmethyl)pyrazolo[1,5-a]pyrazin-6-yl)benzonitrile] the Ki (Adenosine A2A; [2]) was less than 10 nM and the EC50 [1] was less than 10 nM.

Work on `N#Cc1cccc(-c2nc(N)c3cc(Cc4ccccc4F)nn3c2C2=CCN(C(N)=O)CC2)c1` [Example 19, 4-(4-Amino-6-(3-cyanophenyl)-2-(2-fluorobenzyl)pyrazolo[1,5-a]pyrazin-7-yl)-5,6-dihydropyridine-1(2H)-carboxamide] yielded a Ki (Adenosine A2A; [2]) of less than 10 nM and an EC50 [1] of 10 to 100 nM.

For `N#Cc1cccc(-c2nc(N)c3cc(Cc4ccccc4F)nn3c2C#N)c1` [Example 20, 4-Amino-6-(3-cyanophenyl)-2-(2-fluorobenzyl)pyrazolo[1,5-a]pyrazine-7-carbonitrile], the Ki (Adenosine A2A; [2]) was less than 10 nM and the EC50 [1] was less than 10 nM.

`N#Cc1cccc(-c2cn3nc(Cc4ccccc4F)c(C#N)c3c(N)n2)c1` [Example 21, 4-Amino-6-(3-cyanophenyl)-2-(2-fluorobenzyl)pyrazolo[1,5-a]pyrazine-3-carbonitrile] was tested, and the Ki (Adenosine A2A; [2]) was less than 10 nM and the EC50 [1] was 100 to 1000 nM.

For `N#Cc1cccc(-c2nc(N)c3cc(C(O)c4ccccc4F)nn3c2Br)c1` (stereo not shown) [Example 22, 3-(4-Amino-7-bromo-2-((2-fluorophenyl)(hydroxy)methyl)pyrazolo[1,5-a]pyrazin-6-yl)benzonitrile], the Ki (Adenosine A2A; [2]) was less than 10 nM and the EC50 [1] was 100 to 1000 nM.

With `N#Cc1cccc(-c2nc(N)c3cc(C4=CCOCC4)nn3c2-c2ccncn2)c1` [Example 24, 3-(4-Amino-2-(3,6-dihydro-2H-pyran-4-yl)-7-(pyrimidin-4-yl)pyrazolo[1,5-a]pyrazin-6-yl)benzonitrile] the Ki (Adenosine A2A; [2]) was less than 10 nM and the EC50 [1] was 10 to 100 nM.

In the case of `N#Cc1cccc(-c2nc(N)c3cc(Nc4ccccc4)nn3c2-c2ccncc2)c1` [Example 25, 3-(4-Amino-2-(phenylamino)-7-(pyridin-4-yl)pyrazolo[1,5-a]pyrazin-6-yl)benzonitrile], the Ki (Adenosine A2A; [2]) is reported as less than 10 nM and the EC50 [1] is reported as 10 to 100 nM.

`CN1CCN(c2cc(-c3cc4c(N)nc(-c5cccc(C#N)c5)c(-c5ccncc5)n4n3)ccn2)CC1` [Example 26, 3-(4-Amino-2-(2-(4-methylpiperazin-1-yl)pyridin-4-yl)-7-(pyridin-4-yl)pyrazolo[1,5-a]pyrazin-6-yl)benzonitrile] gave a Ki (Adenosine A2A; [2]) of less than 10 nM and an EC50 [1] of 10 to 100 nM.

`N#Cc1cccc(-c2nc(N)c3nc(Cc4ccccn4)nn3c2-c2ccncn2)c1` [Example 27, 3-(8-Amino-2-(pyridin-2-ylmethyl)-5-(pyrimidin-4-yl)-[1,2,4]triazolo[1,5-a]pyrazin-6-yl)benzonitrile] was tested, and the Ki (Adenosine A2A; [2]) was less than 10 nM and the EC50 [1] was less than 10 nM.

With `Cn1cc(-c2c(-c3cccc(C#N)c3)nc(N)c3nc(Cc4ccccn4)nn23)ccc1=O` [Example 28, 3-(8-Amino-5-(1-methyl-6-oxo-1,6-dihydropyridin-3-yl)-2-(pyridin-2-ylmethyl)-[1,2,4]triazolo[1,5-a]pyrazin-6-yl)benzonitrile] the Ki (Adenosine A2A; [2]) was less than 10 nM and the EC50 [1] was 10 to 100 nM.

`Cn1nc(-c2c(-c3cccc(C#N)c3)nc(N)c3nc(Cc4ccccn4)nn23)ccc1=O` [Example 29, 3-(8-Amino-5-(1-methyl-6-oxo-1,6-dihydropyridazin-3-yl)-2-(pyridin-2-ylmethyl)-[1,2,4]triazolo[1,5-a]pyrazin-6-yl)benzonitrile] gave a Ki (Adenosine A2A) of less than 10 nM and an EC50 [1] of less than 10 nM.

`N#Cc1cccc(-c2nc(N)c3nc(Cc4c(F)cccc4CN4CC[C@H](C(=O)O)C4)nn3c2-c2ccncn2)c1` [Example 30, (S)-1-(2-((8-Amino-6-(3-cyanophenyl)-5-(pyrimidin-4-yl)-[1,2,4]triazolo[1,5-a]pyrazin-2-yl)methyl)-3-fluorobenzyl)pyrrolidine-3-carboxylic Acid] was tested, and the Ki (Adenosine A2A; [2]) was less than 10 nM and the EC50 [1] was 10 to 100 nM.

`N#Cc1cccc(-c2nc(N)c3nc(Cc4c(F)cccc4CN4CC(C(=O)O)C4)nn3c2-c2ccncn2)c1` [Example 31, 1-(2-((8-Amino-6-(3-cyanophenyl)-5-(pyrimidin-4-yl)-[1,2,4]triazolo[1,5-a]pyrazin-2-yl)methyl)-3-fluorobenzyl)azetidine-3-carboxylic Acid] was tested, and the Ki (Adenosine A2A; [2]) was less than 10 nM and the EC50 [1] was 10 to 100 nM.

`N#Cc1cccc(-c2nc(N)c3nc(Cn4ccc5cccnc54)nn3c2-c2ccncn2)c1` [Example 32, 3-(2-((1H-Pyrrolo[2,3-b]pyridin-1-yl)methyl)-8-amino-5-(pyrimidin-4-yl)-[1,2,4]triazolo[1,5-a]pyrazin-6-yl)benzonitrile] showed a Ki (Adenosine A2A; [2]) of less than 10 nM and an EC50 [1] of less than 10 nM.

With `N#Cc1cccc(-c2nc(N)c3nc(Cn4cccc5ccnc4-5)nn3c2-c2ccncn2)c1` [Example 33, 3-(2-((7H-pyrrolo[2,3-b]pyridin-7-yl)methyl)-8-amino-5-(pyrimidin-4-yl)-[1,2,4]triazolo[1,5-a]pyrazin-6-yl)benzonitrile] the Ki (Adenosine A2A; [2]) was less than 10 nM and the EC50 [1] was less than 10 nM.

With `Cc1nc(C(C)O)c(-c2c(-c3cccc(C#N)c3)nc(N)c3cc(Cc4ccccn4)nn23)o1` (stereo not shown) [Example 34, 3-(4-Amino-7-(4-(1-hydroxyethyl)-2-methyloxazol-5-yl)-2-(pyridin-2-ylmethyl)pyrazolo[1,5-a]pyrazin-6-yl)benzonitrile] the Ki (Adenosine A2A; [2]) was less than 10 nM and the EC50 [1] was 10 to 100 nM.

`Cc1nc(C(O)C(F)F)c(-c2c(-c3cccc(C#N)c3)nc(N)c3cc(Cc4ccccn4)nn23)o1` (stereo not shown) [Example 35, 3-(4-Amino-7-(4-(2,2-difluoro-1-hydroxyethyl)-2-methyloxazol-5-yl)-2-(pyridin-2-ylmethyl)pyrazolo[1,5-a]pyrazin-6-yl)benzonitrile] gave a Ki (Adenosine A2A; [2]) of less than 10 nM and an EC50 [1] of less than 10 nM.

`CCn1nncc1-c1c(-c2cccc(C#N)c2)nc(N)c2cc(Cc3ccccn3)nn12` [Example 36, 3-(4-Amino-7-(1-ethyl-1H-1,2,3-triazol-5-yl)-2-(pyridin-2-ylmethyl)pyrazolo[1,5-a]pyrazin-6-yl)benzonitrile] showed a Ki (Adenosine A2A; [2]) of less than 10 nM and an EC50 [1] of less than 10 nM.

Molecule `Cn1nncc1-c1c(-c2cccc(C#N)c2)nc(N)c2cc(Cc3ccccn3)nn12` [Example 37, 3-(4-Amino-7-(1-methyl-1H-1,2,3-triazol-5-yl)-2-(pyridin-2-ylmethyl)pyrazolo[1,5-a]pyrazin-6-yl)benzonitrile] has a Ki (Adenosine A2A; [2]) of less than 10 nM and an EC50 [1] of less than 10 nM.

Molecule `N#Cc1cccc(-c2nc(N)c3cc(C(O)c4ccccc4F)nn3c2-c2ccncn2)c1` (stereo not shown) [Example 38, 3-(4-Amino-2-((2-fluorophenyl)(hydroxy)methyl)-7-(pyrimidin-4-yl)pyrazolo[1,5-a]pyrazin-6-yl)benzonitrile] has a Ki (Adenosine A2A; [2]) of less than 10 nM and an EC50 [1] of less than 10 nM.

Molecule `N#Cc1cccc(-c2nc(N)c3nc(Oc4ccccc4F)nn3c2-c2ccncn2)c1` [Example 39, 3-(8-Amino-2-(2-fluorophenoxy)-5-(pyrimidin-4-yl)-[1,2,4]triazolo[1,5-a]pyrazin-6-yl)benzonitrile] has a Ki (Adenosine A2A; [2]) of less than 10 nM and an EC50 [1] of less than 10 nM.

`Cn1cc(-c2ccccc2Cc2nc3c(N)nc(-c4cccc(C#N)c4)c(-c4ccncn4)n3n2)cn1` [Example 41, 3-(8-Amino-2-(2-(1-methyl-1H-pyrazol-4-yl)benzyl)-5-(pyrimidin-4-yl)-[1,2,4]triazolo[1,5-a]pyrazin-6-yl)benzonitrile] gave a Ki (Adenosine A2A; [2]) of less than 10 nM and an EC50 [1] of less than 10 nM.

With `Cc1ncoc1-c1c(-c2cccc(C#N)c2)nc(N)c2nc(Cc3ccccn3)nn12` [Example 42, 3-(8-Amino-5-(4-methyloxazol-5-yl)-2-(pyridin-2-ylmethyl)-[1,2,4]triazolo[1,5-a]pyrazin-6-yl)benzonitrile] the Ki (Adenosine A2A; [2]) was less than 10 nM and the EC50 [1] was less than 10 nM.

Work on `CCc1ncoc1-c1c(-c2cccc(C#N)c2)nc(N)c2nc(Cc3ccccn3)nn12` [Example 43, 3-(8-Amino-5-(4-ethyloxazol-5-yl)-2-(pyridin-2-ylmethyl)-[1,2,4]triazolo[1,5-a]pyrazin-6-yl)benzonitrile] yielded a Ki (Adenosine A2A; [2]) of less than 10 nM and an EC50 [1] of less than 10 nM.

In the case of `Cc1cnccc1-c1c(-c2cccc(C#N)c2)nc(N)c2nc(Cc3ccccn3)nn12` [Example 44, 3-(8-Amino-5-(3-methylpyridin-4-yl)-2-(pyridin-2-ylmethyl)-[1,2,4]triazolo[1,5-a]pyrazin-6-yl)benzonitrile], the Ki (Adenosine A2A; [2]) is reported as less than 10 nM and the EC50 [1] is reported as less than 10 nM.

`N#Cc1cccc(-c2nc(N)c3nc(Cc4cccn5ccnc45)nn3c2-c2ccncn2)c1` [Example 45, 3-(8-Amino-2-(imidazo[1,2-a]pyridin-8-ylmethyl)-5-(pyrimidin-4-yl)-[1,2,4]triazolo[1,5-a]pyrazin-6-yl)benzonitrile] showed a Ki (Adenosine A2A; [2]) of less than 10 nM and an EC50 [1] of less than 10 nM.

In the case of `N#Cc1cccc(-c2nc(N)c3nc(Cc4cccc5ccnn45)nn3c2-c2ccncn2)c1` [Example 46, 3-(8-Amino-2-(pyrazolo[1,5-a]pyridin-7-ylmethyl)-5-(pyrimidin-4-yl)-[1,2,4]triazolo[1,5-a]pyrazin-6-yl)benzonitrile], the Ki (Adenosine A2A; [2]) is reported as less than 10 nM and the EC50 [1] is reported as less than 10 nM.

`N#Cc1cccc(-c2nc(N)c3nc(Cn4cc5ccccc5n4)nn3c2-c2ccncn2)c1` [Example 47, 3-(2-((2H-Indazol-2-yl)methyl)-8-amino-5-(pyrimidin-4-yl)-[1,2,4]triazolo[1,5-a]pyrazin-6-yl)benzonitrile] was tested, and the Ki (Adenosine A2A; [2]) was less than 10 nM and the EC50 [1] was 10 to 100 nM.
